According to patent US7582616B2, “Nucleoside transport inhibitors” (Quesrema Enterprises LLC, priority 2003, dated 2009):
Marks after values point to notes of the source that are not given here. Blank lines part the entries; values can stand above or below the compound they belong to.

Legend:
rat heart = assay: Rat heart isolated model, recovery from global ischemia; assay type: in vivo; settings: for Percentage recovery relative to control levels: global ischemia; for Change in EDP / Recovery from 30 min Global Ischemia (LVDP): treatment during ischemia and reperfusion, mean SEM; for Change in EDP: end diastolic pressure; for Recovery from 30 min Global Ischemia (LVDP): left ventricular developed pressure
Source text: In addition, treatment with compound 4 also appears to keep the heart more relaxed than treatment with either control or NBMPR, an added benefit not seen with the standard agent.

[1] = target: T1, es nucleoside transporter (Homo sapiens, UniProt Q99808); assay: Flow cytometric es nucleoside transporter binding assay (displacement of 5-(SAENTA)-X8-fluorescein) in K562 cells; settings: for Ki: 25 nM 5-(SAENTA)-X8-fluorescein, 45 minutes, room temperature, read-out: Flow Cytometrically-Determined Ki Values; for Ki at the es transporter, in words: displacement of 5-(SAENTA)-X8-fluorescein
T1 construct: endogenous in cells; host or cells: K562 human chronic myelogenous leukemia cells (intact cells)
T1 sequence (Q99808 1-456): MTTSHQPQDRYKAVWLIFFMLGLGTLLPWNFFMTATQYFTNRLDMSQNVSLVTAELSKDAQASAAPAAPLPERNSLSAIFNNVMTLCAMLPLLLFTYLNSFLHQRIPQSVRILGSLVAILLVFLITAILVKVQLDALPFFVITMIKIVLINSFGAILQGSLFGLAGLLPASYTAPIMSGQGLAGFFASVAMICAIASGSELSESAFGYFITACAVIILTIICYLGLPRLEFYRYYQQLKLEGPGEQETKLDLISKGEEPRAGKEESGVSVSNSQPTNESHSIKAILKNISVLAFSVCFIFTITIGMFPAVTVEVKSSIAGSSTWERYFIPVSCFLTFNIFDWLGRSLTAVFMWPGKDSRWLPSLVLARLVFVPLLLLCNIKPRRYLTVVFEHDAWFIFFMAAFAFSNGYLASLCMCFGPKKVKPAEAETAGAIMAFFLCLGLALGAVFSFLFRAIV
Protocol: FIG. 1 is a graph showing the equilibrium displacement of SAENTA-fluorescein ligand by of new tetrahydroisoquinoline constrained NBMPR analogs in K562 cells. Cells are incubated with 25 nM SAENTA fluorescein in the presence of inhibitor for 45 minutes at room temperature and analyzed by flow cytometry.
Exemplary compounds are tested to determine their es nucleoside transporter binding ability by a flow cytometric assay (Buolamwini et al., 1994). Human leukemia K562 cells growing in RPMI 1640 medium are washed once and suspended at 1.6×10^6 cells/ml in phosphate-buffered saline at pH 7.4, and incubated with 5-(SAENTA)-X8-fluorescein (25 nM) in the presence or absence of varying concentrations of test compounds at room temperature for 45 minutes. Flow cytometric measurements for cell-associated fluorescence are then performed with a FACSCalibur (Becton Dickinson, San Jose, Calif.) equipped with a 15 mW-argon laser (Molecular Resources Flow Cytometry Facility, University of Tennessee Health Sciences Center). In each assay, 5,000 cells are analyzed from suspensions of 4×10^5 cells/ml. The units of fluorescence are arbitrary channel numbers. Percentage (%) of control (i.e. es transporter-specific fluorescence in the presence of SAENTA-fluor without test compounds) is calculated for each sample by the equation below.
[formula] • where SFs is the es transporter-specific fluorescence of test samples, and SFf is the es transporter-specific fluorescence of the SAENTA-fluor ligand standard.
The results are fed into the PRISM program (GraphPad, San Diego, Calif.) to derive concentration-dependent curves using nonlinear regression, as shown in FIG. 1. From these curves, the IC50 values are obtained that are used to compare abilities of the new compounds to displace the es transporter-specific ligand (5-(SAENTA)-X8-fluorescein (Buolamwini et al., 1994).
Examples of the present invention (2-5) are tested along with 6-(1,2,3,4-tetrahydroisoquinolinyl)purine riboside (23) as es transporter binding ligands by a facile competitive binding flow cytometric assay using the K562 chronic myelogenous leukemia cell line. The high-affinity es transporter fluorescent ligand, 5-(SAENTA)-X8-fluorescein is used as the competitive ligand to be displaced by the test compounds.

[2] = test system: nucleoside transporter (uridine uptake in JB6 cells); assay: Inhibition of [3H]uridine uptake in JB6 cells; assay type: cell-based; settings: 1 μM [3H]uridine, 10-second uptake
Protocol: FIG. 2 is a graph showing inhibition of [^3H]uridine uptake by NBMPR (•) and a novel tetrahydroisoquinoline analogue compound 12 (◯) in JB6 cells. Cells in logarithmic phase of growth are incubated with 1 μM […] and 10-second uptake measurements were performed as described in Paterson et al. (1983). The data points are mean ±std for triplicate samples.
Cells in logarithmic phase of growth are incubated with 1 μM [^3H]uridine and 10-second uptake measurements are performed as described in Paterson et al. (1983).

es transporter = target: T2, es transporter (Homo sapiens, UniProt Q99808); settings: product of in vivo loss of the nitrobenzyl group of NBMPR; cited from earlier work
T2 sequence (Q99808 1-456): T1 sequence (Q99808 1-456)

SMILES: O=[N+]([O-])c1ccc(CSc2ncnc3c2ncn3[C@@H]2O[C@H](CO)[C@@H](O)[C@H]2O)cc1 [Compound 1, nitrobenzylthioinosine, reference compound]
- Percentage recovery relative to control levels (rat heart): doubles
- Change in EDP (rat heart): 65.2 ± 3.2%
- Recovery from 30 min Global Ischemia (LVDP) (rat heart): 24.40 ± 3.6% (n = 5)^d

SMILES: O=[N+]([O-])c1cccc2c1CCN(c1ncnc3c1ncn3[C@@H]1O[C@H](CO)[C@@H](O)[C@H]1O)C2 [Compound 2]
- IC50 / binding to the es transporter (inhibition of SAENTA-fluor binding), in words, FIG. 1 [1]: much less potent inhibitors
- Ki [1]: 250 nM
- Ki at the es transporter, in words [1]: high nanomolar concentrations

SMILES: O=[N+]([O-])c1cccc2c1CN(c1ncnc3c1ncn3[C@@H]1O[C@H](CO)[C@@H](O)[C@H]1O)CC2 [Compound 5]
- IC50 / binding to the es transporter (inhibition of SAENTA-fluor binding), in words, FIG. 1 [1]: much less potent inhibitors
- Ki [1]: 300 nM
- Ki at the es transporter, in words [1]: high nanomolar concentrations

SMILES: OC[C@H]1O[C@@H](n2cnc3c(N4CCc5ccccc5C4)ncnc32)[C@H](O)[C@@H]1O [Compound 23, 6-(1,2,3,4-tetrahydroisoquinolinyl)purine riboside]
- Ki [1]: 150 nM

SMILES: OC[C@H]1O[C@@H](n2cnc3c(=S)nc[nH]c32)[C@H](O)[C@@H]1O [mercaptopurine riboside]
- Decrease in es transporter affinity compared with NBMPR (es transporter): ≤ 1000 fold

Continued, in another order:

- melting point: 148 to 149 °C
- Ki [1]: 15 nM
SMILES: O=[N+]([O-])c1ccc2c(c1)CCN(c1ncnc3c1ncn3[C@@H]1O[C@H](CO)[C@@H](O)[C@H]1O)C2 [Compound 3]
- IC50 / binding to the es transporter (inhibition of SAENTA-fluor binding), in words, FIG. 1 [1]: bound as tightly as the prototype compound, NBMPR

- IC50 / binding to the es transporter (inhibition of SAENTA-fluor binding), in words, FIG. 1 [1]: low nanomolar range
- Ki [1]: 0.45 nM
- IC50 for inhibition of uridine uptake, FIG. 2 [2]: single digit nanomolar range
SMILES: O=[N+]([O-])c1ccc2c(c1)CN(c1ncnc3c1ncn3[C@@H]1O[C@H](CO)[C@@H](O)[C@H]1O)CC2 [Compound 4]
- Percentage recovery relative to control levels (rat heart): triples
- Change in EDP (rat heart): 52.5 ± 6.6%^f
- Recovery from 30 min Global Ischemia (LVDP) (rat heart): 33.60 ± 9.8% (n = 4)^e
